# Experimental data reported in patent US7504517B2, “Kv1.5 potassium channel inhibitors” (Wyeth, priority 2006, dated 2009).
# Key:
# [1] = tested on: L-type calcium channels; experiment: FLIPR L-Type Calcium Channel Assay; assay type: cell-based, murine; conditions: HL-1 cells expressing endogenous L-type calcium channels; calcium influx after 20 mM KCl; read-out: L-type Ca^2+ IC50
# Method: 50 μL per well test compounds are added to the plates and further incubated for 15 min. in a 5% CO2 37° C. incubator. All final solutions contain the anion exchange inhibitor, probenecid (2.5 mM). The 96-well plates are then placed in the center position of the FLIPR 1 (Fluorometric Imaging Plate Reader, Molecular Devices Corporation). Cell monolayers in each well are simultaneously illuminated at 488 nm with an Argon ion laser, and fluorescence emission is monitored using a 510-570 nm bandpass filter and a cooled CCD camera. To depolarize the plasma membrane and activate L-type calcium channels, 50 μL per well of 20 mM KCl (final concentration) are dispensed simultaneously to all 96 wells using the FLIPR's automatic 96-well pipettor. Fluorescence measurements are captured for 5 min. following KCl addition. Calcium influx, expressed as % control, is calculated for each concentration of test compound and concentration-response curves and IC50 values are generated using GraphPad Prism 4.0.
# [2] = biological target: T1, Kv1.5 (Homo sapiens, UniProt P22460); experiment: Kv1.5 Patch Clamp EP; assay type: cell-based; conditions: 1.0 μM, single point; whole cell patch clamp, Kv1.5 stably over expressed in HEK or LTK- cells
# T1 construct: expressed in transfected cells; host or cells: HEK or LTK- cells
# T1 sequence (P22460 whole entry): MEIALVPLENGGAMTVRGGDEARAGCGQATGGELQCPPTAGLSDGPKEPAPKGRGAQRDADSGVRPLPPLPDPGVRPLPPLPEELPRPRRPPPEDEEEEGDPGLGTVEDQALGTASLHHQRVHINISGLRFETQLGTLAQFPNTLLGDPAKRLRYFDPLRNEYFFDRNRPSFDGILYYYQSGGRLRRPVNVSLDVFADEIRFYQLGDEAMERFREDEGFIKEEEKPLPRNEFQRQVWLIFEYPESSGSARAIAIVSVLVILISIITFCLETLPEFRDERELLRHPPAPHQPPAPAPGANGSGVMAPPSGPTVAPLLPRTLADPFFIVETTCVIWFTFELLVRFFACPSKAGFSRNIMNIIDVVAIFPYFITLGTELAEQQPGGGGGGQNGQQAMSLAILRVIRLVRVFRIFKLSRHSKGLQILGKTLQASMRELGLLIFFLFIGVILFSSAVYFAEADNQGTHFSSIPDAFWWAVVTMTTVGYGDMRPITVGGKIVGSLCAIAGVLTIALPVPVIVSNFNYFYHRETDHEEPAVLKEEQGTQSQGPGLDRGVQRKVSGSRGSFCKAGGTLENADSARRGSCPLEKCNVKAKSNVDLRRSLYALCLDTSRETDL
# Method: The external solution is standard Tyrodes solution. […] Inhibition was measured at the end of the 1 second pulses and expressed relative to controls. Initial Kv1.5 inhibition is estimated by single point determinations done at 1 μM.
IC50 [1],inhibition at 1 µM [2],Kv1.5% inhibition @ 1.0 μM [2],SMILES
11 µM,75%,–,"COc1ccc(CCN2C(=O)N(NC(=O)c3ccno3)CC2c2ccc(C)c(C)c2)cc1 (centres unmarked) [Compound 78, 1-(Isoxazol-5-ylcarbonylamino)-3-[2-(4-methoxyphenyl)-ethyl]-4-(3,4-dimethylphenyl)-2-imidazolidinone]"
8 µM,53%,–,"COC(=O)c1ccc(NN2CC(c3ccc(C)c(C)c3)N(CCc3ccc(OC)cc3)C2=O)c(N)c1 (centres unmarked) [Compound 135, methyl 3-amino-4-({4-(3,4-dimethylphenyl)-3-[2-(4-methoxyphenyl)ethyl]-2-oxoimidazolidin-1-yl}amino)benzoate]"
6.7 µM,69%,–,"CCCCS(=O)(=O)NN1CC(c2ccc(C(C)(C)C)cc2)N(CCc2ccc(OC)cc2)C1=O (centres unmarked) [Compound 32, 1-(Butylsulfonylamino)-3-[(4-methoxyphenyl)-ethyl]-4-[4-(tert-butyl)phenyl]-2-imidazolidinone]"
–,38%,–,"COc1ccc(CCN2C(=O)N(N3CCCS3(=O)=O)CC2c2ccc(C3CC3)cc2)cc1 (centres unmarked) [Compound 124, 4-(4-cyclopropylphenyl)-1-(1,1-dioxidoisothiazolidin-2-yl)-3-[2-(4-methoxyphenyl)ethyl]imidazolidin-2-one]"
–,5%,–,"CCOc1ccc(CCN2C(=O)N(NS(C)(=O)=O)CC2c2ccc(OC)cc2)cc1 (centres unmarked) [Compound 113, N-{3-[2-(4-ethoxyphenyl)ethyl]-4-(4-methoxyphenyl)-2-oxoimidazolidin-1-yl}methanesulfonamide]"
–,16%,–,"COc1ccc(C2CN(NS(C)(=O)=O)C(=O)N2CCc2ccc(OC(F)(F)F)cc2)cc1 (centres unmarked) [Compound 152, N-[4-(4-methoxyphenyl)-2-oxo-3-{2-[4-(trifluoromethoxy)phenyl]ethyl}imidazolidin-1-yl]methanesulfonamide]"
–,5%,–,"COc1ccc(CCN2C(=O)N(NS(C)(=O)=O)CC2Cc2ccc(F)cc2)cc1 (centres unmarked) [Compound 120, N-{4-(4-fluorobenzyl)-3-[2-(4-methoxyphenyl)ethyl]-2-oxoimidazolidin-1-yl}methanesulfonamide]"
–,7%,–,"COc1ccc(CCN2C(=O)N(N)CC2C2(c3ccccc3)CC2)cc1 (centres unmarked) [Compound 156, 1-amino-3-[2-(4-methoxyphenyl)ethyl]-4-(1-phenylcyclopropyl)imidazolidin-2-one]"
–,7%,–,"COc1ccc(CCN2C(=O)N(N)CC2c2ccc(OC)cc2)cc1 (centres unmarked) [Compound 175, 1-amino-4-(4-methoxyphenyl)-3-[2-(4-methoxyphenyl)ethyl]imidazolidin-2-one]"
–,16%,–,"COc1ccc(CCN2C(=O)N(NS(C)(=O)=O)CC2c2ccc3c(c2)OCCO3)cc1OC (centres unmarked) [Compound 144, N-{4-(2,3-dihydro-1,4-benzodioxin-6-yl)-3-[2-(3,4-dimethoxyphenyl)ethyl]-2-oxoimidazolidin-1-yl}methanesulfonamide]"
–,7%,–,"COc1ccc(CCN2C(=O)N(NCCn3ccnc3)CC2c2ccc(C(C)(C)C)cc2)cc1 (centres unmarked) [Compound 121, 4-(4-tert-butylphenyl)-1-{[2-(1H-imidazol-1-yl)ethyl]amino}-3-[2-(4-methoxyphenyl)ethyl]imidazolidin-2-one]"
–,7%,–,"COc1ccc(CCN2C(=O)N(N)CC2c2ccc(OC(F)(F)F)cc2)cc1 (centres unmarked) [Compound 110, 1-amino-3-[2-(4-methoxyphenyl)ethyl]-4-[4-(trifluoromethoxy)phenyl]imidazolidin-2-one]"
–,13%,–,"COc1ccc(CCCN2C(=O)N(N)CC2c2ccc(OC)cc2)cc1 (centres unmarked) [Compound 3, 1-Amino-4-(4-methoxyphenyl)-3-[3-(4-methoxyphenyl)propyl]-2-imidazolidinone]"
–,36%,–,"COc1ccc(CCN2C(=O)N(NC(=O)Cc3cccnc3)CC2c2ccc(C3CC3)cc2)cc1 (centres unmarked) [Compound 122, N-{4-(4-cyclopropylphenyl)-3-[2-(4-methoxyphenyl)ethyl]-2-oxoimidazolidin-1-yl}-2-pyridin-3-ylacetamide]"
–,7%,–,"COc1ccc(CCN2C(=O)N(NCc3nccn3C)CC2c2ccc(C)c(C)c2)cc1 (centres unmarked) [Compound 138, 4-(3,4-dimethylphenyl)-3-[2-(4-methoxyphenyl)ethyl]-1-{[(1-methyl-1H-imidazol-2-yl)methyl]amino}imidazolidin-2-one]"
–,40%,–,"COc1ccc(C2CN(NS(C)(=O)=O)C(=O)N2CCCc2ccccc2)cc1 (centres unmarked) [Compound 46, 1-(Methylsulfonylamino)-3-(3-phenylpropyl)-4-(4-methoxyphenyl)-2-imidazolidinone]"

IC50 [1],inhibition at 1 µM [2],Kv1.5% inhibition @ 1.0 μM [2],SMILES
–,9%,–,"CN(C)CCOc1ccc(CCN2C(=O)N(NS(C)(=O)=O)CC2c2ccc(C(C)(C)C)cc2)cc1 (centres unmarked) [Compound 118, N-[4-(4-tert-butylphenyl)-3-(2-{4-[2-(dimethylamino)ethoxy]phenyl}ethyl)-2-oxoimidazolidin-1-yl]methanesulfonamide]"
–,8%,–,"COc1ccc(CCN2C(=O)N(N3CCNCC3)CC2c2ccc(C(C)(C)C)cc2)cc1 (centres unmarked) [Compound 112, 4-(4-tert-butylphenyl)-3-[2-(4-methoxyphenyl)ethyl]-1-piperazin-1-ylimidazolidin-2-one]"
–,4%,–,"COc1ccc(CCN2C(=O)N(N)CC2c2ccc(C)cc2)cc1 (centres unmarked) [Compound 159, 1-amino-3-[2-(4-methoxyphenyl)ethyl]-4-(4-methylphenyl)imidazolidin-2-one]"
–,43%,–,"COc1ccc(CCN2C(=O)N(NCc3ccncc3)CC2c2ccc(C(C)(C)C)cc2)cc1 (centres unmarked) [Compound 95, 1-[(Pyridin-4-ylmethyl)amino]-3-[2-(4-methoxyphenyl)ethyl]-4-(4-(tert-butyl)phenyl)-2-imidazolidinone]"
–,3%,–,"COc1ccc(CCN2C(=O)N(NS(=O)(=O)CC(=O)N(C)CC(=O)N(C)C)CC2c2ccc(C3CC3)cc2)cc1 (centres unmarked) [Compound 132, 2-(N-(4-(4-cyclopropylphenyl)-3-(4-methoxyphenethyl)-2-oxoimidazolidin-1-yl)sulfamoyl)-N-(2-(dimethylamino)-2-oxoethyl)-N-methylacetamide]"
–,2%,–,"COc1ccc(CCN2C(=O)N(N)CC2c2ccc(OC(C)C)cc2)cc1 (centres unmarked) [Compound 164, 1-amino-4-(4-isopropoxyphenyl)-3-[2-(4-methoxyphenyl)ethyl]imidazolidin-2-one]"
–,2%,–,"COc1ccc(CCN2C(=O)N(NS(=O)(=O)C(F)(F)F)CC2c2ccc(C(C)(C)C)cc2)cc1 (centres unmarked) [Compound 148, N-{4-(4-tert-butylphenyl)-3-[2-(4-methoxyphenyl)ethyl]-2-oxoimidazolidin-1-yl}-1,1,1-trifluoromethanesulfonamide]"
–,–,28%,"COc1ccc(CCN2C(=O)N(NS(C)(=O)=O)CC2c2ccc(OC(C)C)cc2)cc1 (centres unmarked) [Compound 14, 1-(Methylsulfonylamino)-3-[2-(4-methoxyphenyl)ethyl]-4-[(4-isopropyloxy)-phenyl]-2-imidazolidinone]"
–,20%,–,"COc1ccc(CCN2C(=O)N(NCC3CC3)CC2c2ccc(C)c(C)c2)cc1 (centres unmarked) [Compound 86, 1-(Cyclopropylmethylamino)-3-[2-(4-methoxyphenyl)ethyl]-4-(3,4-dimethylphenyl)-2-imidazolidinone]"
–,4%,–,"COc1ccc(CCN2C(=O)N(NS(C)(=O)=O)CC2c2ccc(F)cc2)cc1 (centres unmarked) [Compound 137, N-{4-(4-fluorophenyl)-3-[2-(4-methoxyphenyl)ethyl]-2-oxoimidazolidin-1-yl}methanesulfonamide]"
–,17%,–,"COc1ccc(CCN2C(=O)N(N3CCN(C(N)=O)CC3)CC2c2ccc(C(C)(C)C)cc2)cc1 (centres unmarked) [Compound 150, 4-{4-(4-tert-butylphenyl)-3-[2-(4-methoxyphenyl)ethyl]-2-oxoimidazolidin-1-yl}piperazine-1-carboxamide]"
–,22%,–,"COc1ccc(CCN2C(=O)N(NS(=O)(=O)Cc3cccnc3)CC2C2(c3ccccc3)CC2)cc1 (centres unmarked) [Compound 134, N-{3-[2-(4-methoxyphenyl)ethyl]-2-oxo-4-(1-phenylcyclopropyl)imidazolidin-1-yl}-1-pyridin-3-ylmethanesulfonamide]"
–,25%,–,"CCN(CC)c1ccc(CNN2CC(c3ccc(C(C)(C)C)cc3)N(CCc3ccc(OC)cc3)C2=O)cc1 (centres unmarked) [Compound 123, 4-(4-tert-butylphenyl)-1-{[4-(diethylamino)benzyl]amino}-3-[2-(4-methoxyphenyl)ethyl]imidazolidin-2-one]"
–,9%,–,"COc1ccc(CCN2C(=O)N(NS(=O)(=O)CC(=O)O)CC2c2ccc(C3CC3)cc2)cc1 (centres unmarked) [Compound 174, [[[4-(4-cyclopropylphenyl)-3-[2-(4-methoxyphenyl)ethyl]-2-oxo-imidazolidin-1-yl]amino]sulfonyl]acetic acid]"
–,22%,–,"COc1ccc(CCN2C(=O)N(NC(N)=O)CC2c2ccc(C)c(C)c2)cc1 (centres unmarked) [Compound 70, {2-Oxo-3-[2-(4-methoxyphenyl)ethyl]-4-(3,4-dimethylphenyl)-imidazolidin-1-yl}-urea]"
–,46%,–,"COc1ccc(CCN2C(=O)N(N)CC2c2ccc(C(C)(C)C)cc2)cc1 (centres unmarked) [Compound 2, 1-Amino-4-[4-(tert-butyl)phenyl]-3-[2-(4-methoxyphenyl)ethyl]-2-imidazolidinone]"
